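A five-concentration, 48-hour dose response in 96-well plates underlies each endpoint, interpolated linearly between surrounding concentrations. At the TGI there is no net growth.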
Experiments:
Experiment in all cases: inhibition of tumour cell growth, NCI panel, 48 h
M19-MEL melanoma = test system: M19-MEL melanoma
XF 498 CNS = test system: XF 498 CNS
HOP-18 NSCLC = test system: HOP-18 NSCLC
ACHN renal = test system: ACHN renal
UACC-257 melanoma = test system: UACC-257 melanoma
SNB-78 CNS = test system: SNB-78 CNS
MALME-3M melanoma = test system: MALME-3M melanoma
MOLT-4 leukemia = test system: MOLT-4 leukemia
OVCAR-8 ovarian = test system: OVCAR-8 ovarian
RXF 393 renal = test system: RXF 393 renal
COLO 205 colon = test system: COLO 205 colon
SN12C renal = test system: SN12C renal
NCI-H23 lung = test system: NCI-H23 lung
HL-60(TB) leukemia = test system: HL-60(TB) leukemia
LOX IMVI melanoma = test system: LOX IMVI melanoma
HCT-116 colon = test system: HCT-116 colon
M14 melanoma = test system: M14 melanoma
HOP-92 NSCLC = test system: HOP-92 NSCLC
SF-268 CNS = test system: SF-268 CNS
SK-MEL-28 melanoma = test system: SK-MEL-28 melanoma
SK-MEL-5 melanoma = test system: SK-MEL-5 melanoma
KM20L2 colon = test system: KM20L2 colon
UACC-62 melanoma = test system: UACC-62 melanoma
HT29 colon = test system: HT29 colon
OVCAR-4 ovarian = test system: OVCAR-4 ovarian
NCI-H226 lung = test system: NCI-H226 lung
DMS 273 small cell lung = test system: DMS 273 small cell lung
EKVX NSCLC = test system: EKVX NSCLC
K-562 leukemia = test system: K-562 leukemia
IGROV1 ovarian = test system: IGROV1 ovarian
SF-295 CNS = test system: SF-295 CNS
SNB-75 CNS = test system: SNB-75 CNS
SNB-19 CNS = test system: SNB-19 CNS
DMS 114 small cell lung = test system: DMS 114 small cell lung
HCT-15 colon = test system: HCT-15 colon
KM12 colon = test system: KM12 colon
TK-10 renal = test system: TK-10 renal
CCRF-CEM leukemia = test system: CCRF-CEM leukemia
CAKI-1 renal = test system: CAKI-1 renal
RPMI-8226 leukemia = test system: RPMI-8226 leukemia
A498 renal = test system: A498 renal
DLD-1 colon = test system: DLD-1 colon
SW-620 colon = test system: SW-620 colon
OVCAR-5 ovarian = test system: OVCAR-5 ovarian
786-0 renal = test system: 786-0 renal
U251 CNS = test system: U251 CNS
LXFL 529 NSCLC = test system: LXFL 529 NSCLC
OVCAR-3 ovarian = test system: OVCAR-3 ovarian
A549 NSCLC = test system: A549 NSCLC
UO-31 renal = test system: UO-31 renal
NCI-H460 lung = test system: NCI-H460 lung
HOP-62 NSCLC = test system: HOP-62 NSCLC
NCI-H522 lung = test system: NCI-H522 lung
SF-539 CNS = test system: SF-539 CNS
SK-OV-3 ovarian = test system: SK-OV-3 ovarian
SK-MEL-2 melanoma = test system: SK-MEL-2 melanoma

COc1cc(/C=C/c2cccnc2)cc(OC)c1OC
TGI (M19-MEL melanoma): > 100 µM
TGI (XF 498 CNS): > 100 µM
TGI (HOP-18 NSCLC): > 100 µM
TGI (ACHN renal): > 100 µM
TGI (UACC-257 melanoma): > 100 µM
TGI (SNB-78 CNS): > 100 µM
TGI (MALME-3M melanoma): > 100 µM
TGI (MOLT-4 leukemia): > 100 µM
TGI (OVCAR-8 ovarian): > 100 µM
TGI (RXF 393 renal): > 100 µM
TGI (COLO 205 colon): > 100 µM
TGI (SN12C renal): > 100 µM
TGI (NCI-H23 lung): > 100 µM
TGI (HL-60(TB) leukemia): > 100 µM
TGI (LOX IMVI melanoma): > 100 µM
TGI (HCT-116 colon): > 100 µM
TGI (M14 melanoma): > 100 µM
TGI (HOP-92 NSCLC): > 100 µM
TGI (SF-268 CNS): > 100 µM
TGI (SK-MEL-28 melanoma): > 100 µM
TGI (SK-MEL-5 melanoma): > 100 µM
TGI (KM20L2 colon): > 100 µM
TGI (UACC-62 melanoma): > 100 µM
TGI (HT29 colon): > 100 µM
TGI (OVCAR-4 ovarian): > 100 µM
TGI (NCI-H226 lung): > 100 µM
TGI (DMS 273 small cell lung): > 100 µM
TGI (EKVX NSCLC): > 100 µM
TGI (K-562 leukemia): > 100 µM
TGI (IGROV1 ovarian): > 100 µM
TGI (SF-295 CNS): > 100 µM
TGI (SNB-75 CNS): > 100 µM
TGI (SNB-19 CNS): > 100 µM
TGI (DMS 114 small cell lung): > 100 µM
TGI (HCT-15 colon): > 100 µM
TGI (KM12 colon): > 100 µM
TGI (TK-10 renal): > 100 µM
TGI (CCRF-CEM leukemia): > 100 µM
TGI (CAKI-1 renal): > 100 µM
TGI (RPMI-8226 leukemia): > 100 µM
TGI (A498 renal): > 100 µM
TGI (DLD-1 colon): > 100 µM
TGI (SW-620 colon): > 100 µM
TGI (OVCAR-5 ovarian): > 100 µM
TGI (786-0 renal): > 100 µM
TGI (U251 CNS): > 100 µM
TGI (LXFL 529 NSCLC): > 100 µM
TGI (OVCAR-3 ovarian): > 100 µM
TGI (A549 NSCLC): > 100 µM
TGI (UO-31 renal): > 100 µM
TGI (NCI-H460 lung): > 100 µM
TGI (HOP-62 NSCLC): > 100 µM
TGI (NCI-H522 lung): > 100 µM
TGI (SF-539 CNS): > 100 µM

CN(C(=O)c1cccs1)C(=S)N1CCN(c2ccccn2)CC1
TGI (M19-MEL melanoma): > 100 µM
TGI (XF 498 CNS): > 100 µM
TGI (HOP-18 NSCLC): > 100 µM
TGI (ACHN renal): > 100 µM
TGI (UACC-257 melanoma): > 100 µM
TGI (SNB-78 CNS): > 100 µM
TGI (MALME-3M melanoma): > 100 µM
TGI (MOLT-4 leukemia): > 100 µM
TGI (OVCAR-8 ovarian): > 100 µM
TGI (RXF 393 renal): > 100 µM
TGI (SK-OV-3 ovarian): > 100 µM
TGI (COLO 205 colon): > 100 µM
TGI (SN12C renal): > 100 µM
TGI (NCI-H23 lung): > 100 µM
TGI (HL-60(TB) leukemia): > 100 µM
TGI (LOX IMVI melanoma): > 100 µM
TGI (HCT-116 colon): > 100 µM
TGI (M14 melanoma): > 100 µM
TGI (HOP-92 NSCLC): > 100 µM
TGI (SF-268 CNS): > 100 µM
TGI (SK-MEL-28 melanoma): > 100 µM
TGI (SK-MEL-5 melanoma): > 100 µM
TGI (KM20L2 colon): > 100 µM
TGI (UACC-62 melanoma): > 100 µM
TGI (HT29 colon): > 100 µM
TGI (OVCAR-4 ovarian): > 100 µM
TGI (NCI-H226 lung): > 100 µM
TGI (DMS 273 small cell lung): > 100 µM
TGI (K-562 leukemia): > 100 µM
TGI (IGROV1 ovarian): > 100 µM
TGI (SF-295 CNS): > 100 µM
TGI (SNB-75 CNS): > 100 µM
TGI (SNB-19 CNS): > 100 µM
TGI (DMS 114 small cell lung): > 100 µM
TGI (HCT-15 colon): > 100 µM
TGI (KM12 colon): > 100 µM
TGI (TK-10 renal): > 100 µM
TGI (CCRF-CEM leukemia): > 100 µM
TGI (CAKI-1 renal): > 100 µM
TGI (RPMI-8226 leukemia): > 100 µM
TGI (DLD-1 colon): > 100 µM
TGI (SW-620 colon): > 100 µM
TGI (OVCAR-5 ovarian): > 100 µM
TGI (SK-MEL-2 melanoma): > 100 µM
TGI (786-0 renal): > 100 µM
TGI (U251 CNS): > 100 µM
TGI (LXFL 529 NSCLC): > 100 µM
TGI (OVCAR-3 ovarian): > 100 µM
TGI (A549 NSCLC): > 100 µM
TGI (UO-31 renal): > 100 µM
TGI (NCI-H460 lung): > 100 µM
TGI (HOP-62 NSCLC): > 100 µM
TGI (NCI-H522 lung): > 100 µM
TGI (SF-539 CNS): > 100 µM

COC(=O)C1CCC(=O)C(Sc2ccccc2)C1 (stereo not given)
TGI (M19-MEL melanoma): > 100 µM
TGI (XF 498 CNS): > 100 µM
TGI (HOP-18 NSCLC): > 100 µM
TGI (ACHN renal): > 100 µM
TGI (UACC-257 melanoma): > 100 µM
TGI (SNB-78 CNS): > 100 µM
TGI (MOLT-4 leukemia): > 100 µM
TGI (OVCAR-8 ovarian): > 100 µM
TGI (RXF 393 renal): > 100 µM
TGI (SK-OV-3 ovarian): > 100 µM
TGI (COLO 205 colon): > 100 µM
TGI (SN12C renal): > 100 µM
TGI (NCI-H23 lung): > 100 µM
TGI (HL-60(TB) leukemia): > 100 µM
TGI (LOX IMVI melanoma): > 100 µM
TGI (HCT-116 colon): > 100 µM
TGI (M14 melanoma): > 100 µM
TGI (HOP-92 NSCLC): > 100 µM
TGI (SF-268 CNS): > 100 µM
TGI (SK-MEL-28 melanoma): > 100 µM
TGI (SK-MEL-5 melanoma): > 100 µM
TGI (KM20L2 colon): > 100 µM
TGI (UACC-62 melanoma): > 100 µM
TGI (HT29 colon): > 100 µM
TGI (OVCAR-4 ovarian): > 100 µM
TGI (NCI-H226 lung): > 100 µM
TGI (DMS 273 small cell lung): > 100 µM
TGI (EKVX NSCLC): > 100 µM
TGI (K-562 leukemia): > 100 µM
TGI (IGROV1 ovarian): > 100 µM
TGI (SF-295 CNS): > 100 µM
TGI (SNB-75 CNS): 96.4 µM
TGI (SNB-19 CNS): > 100 µM
TGI (DMS 114 small cell lung): > 100 µM
TGI (HCT-15 colon): > 100 µM
TGI (KM12 colon): > 100 µM
TGI (TK-10 renal): > 100 µM
TGI (CCRF-CEM leukemia): 80 µM
TGI (CAKI-1 renal): > 100 µM
TGI (RPMI-8226 leukemia): > 100 µM
TGI (A498 renal): > 100 µM
TGI (DLD-1 colon): > 100 µM
TGI (SW-620 colon): > 100 µM
TGI (OVCAR-5 ovarian): > 100 µM
TGI (U251 CNS): > 100 µM
TGI (LXFL 529 NSCLC): > 100 µM
TGI (OVCAR-3 ovarian): > 100 µM
TGI (A549 NSCLC): > 100 µM
TGI (UO-31 renal): 99 µM
TGI (NCI-H460 lung): > 100 µM
TGI (NCI-H522 lung): > 100 µM
TGI (SF-539 CNS): > 100 µM

From PubChem BioAssay (NCI)
